According to ChEMBL document CHEMBL5390242, “Design, Synthesis, and Antitumor Efficacy of Substituted 2-Amino[1,2,4]triazolopyrimidines and Related Heterocycles as Dual Inhibitors for Microtubule Polymerization and Janus Kinase 2” (J Med Chem, 2023):
Calls of active or inactive are those of the source. The calls are words filed in the database; no cut-off is given here.

Legend:
HeLa = experiment: Antiproliferative activity against human HeLa cells assessed as cell growth inhibition incubated for 48 hrs by MTT assay; format: functional, cell-based
KP-4 = experiment: Antiproliferative activity against human KP-4 cells assessed as cell growth inhibition incubated for 48 hrs by MTT assay; format: functional, cell-based; conditions: KP-4, 48 h
A549 [1] = experiment: Antiproliferative activity against human A549 cells assessed as cell growth inhibition incubated for 48 hrs by MTT assay; format: functional, cell-based; conditions: A549, 48 h
BXPC-3 = experiment: Antiproliferative activity against human BXPC-3 cells assessed as cell growth inhibition incubated for 48 hrs by MTT assay; format: functional, cell-based; conditions: BXPC-3, 48 h
[2] = AUC (0 to t) in CD-1 mouse at 13 mg/kg,ip measured upto 24 hrs by HPLC-MS/MS analysis; format: ADME, organism-based; parameters: time < 24 hrs, dose 13 mg/kg, route ip; conditions: in vivo
[3] = AUC (0 to infinity) in CD-1 mouse at 13 mg/kg,ip measured upto 24 hrs by HPLC-MS/MS analysis; format: ADME, organism-based; parameters: time < 24 hrs, dose 13 mg/kg, route ip; conditions: in vivo
[4] = MRT (0 to t) in CD-1 mouse at 13 mg/kg,ip measured upto 24 hrs by HPLC-MS/MS analysis; format: ADME, organism-based; conditions: in vivo
[5] = MRT (0 to infinity) in CD-1 mouse at 13 mg/kg,ip measured upto 24 hrs by HPLC-MS/MS analysis; format: ADME, organism-based; conditions: in vivo
[6] = Half life in CD-1 mouse at 13 mg/kg,ip measured upto 24 hrs by HPLC-MS/MS analysis; format: ADME, organism-based; conditions: in vivo
[7] = Tmax in CD-1 mouse at 13 mg/kg,ip measured upto 24 hrs by HPLC-MS/MS analysis; format: ADME, organism-based; conditions: in vivo
[8] = Cmax in CD-1 mouse at 13 mg/kg,ip measured upto 24 hrs by HPLC-MS/MS analysis; format: ADME, organism-based; parameters: time < 24 hrs, dose 13 mg/kg, route ip; conditions: in vivo
A549 [9] = experiment: Antitumor activity against human A549 cells xenografted in Balb/c mouse assessed as tumor size at 50 mg/kg,ip administration measured after 31 days; format: functional; conditions: time 31 day
A549 [10] = experiment: Antitumor activity against human A549 cells xenografted in Balb/c mouse assessed as reduction in tumor weight at 50 mg/kg,ip administration measured after 31 days; format: functional; parameters: scale not given: the % may be the effect or the level left; conditions: time 31 day
A549 [11] = experiment: Antitumor activity against human A549 cells xenografted in Balb/c mouse assessed as increase in tumor necrotic cells at 50 mg/kg,ip administration measured after 31 days by Hematoxylin-eosin staining based microscopy; format: functional, organism-based; conditions: time 31.0 day
[12] = Toxicity in Balb/c mouse xenografted with human A549 cells assessed as change in body weight at 50 mg/kg,ip administration measured after 31 days; format: organism-based; conditions: in vivo, 744 h, time 31 day
[13] = Acute toxicity in C57BL/6 mouse assessed as maximum tolerated dose administered intravenously for 5 consecutive days; conditions: in vivo, route iv
MCF7 = experiment: cells; conditions: Homo sapiens, MCF7, 48 h
Description: Antiproliferative activity against human MCF7 cells assessed as cell growth inhibition incubated for 48 hrs by MTT assay

[14] = molecular target: T1, Tyrosine-protein kinase JAK2 (Homo sapiens, UniProt O60674); experiment: Inhibition of JAK2 (unknown origin) using Poly-(Glu,Tyr 4:1) peptide as substrate at 1 uM in presence of ATP by ADP-Glo reagent based assay relative to control
COLO 205 = experiment: Cytotoxicity against human COLO 205 cells assessed as cell growth inhibition incubated for 48 hrs by MTT assay; format: functional, cell-based; conditions: COLO 205, 48 h
CWR22R = experiment: Cytotoxicity against human 22Rv1 cells assessed as cell growth inhibition incubated for 48 hrs by MTT assay; format: functional, cell-based; conditions: 22Rv1, 48 h
HepG2 = experiment: Cytotoxicity against human HepG2 cells assessed as cell growth inhibition incubated for 48 hrs by MTT assay; format: functional, cell-based; conditions: HepG2, 48 h
[15] = Cytotoxicity against human ARPE-19 cells assessed as cell growth inhibition incubated for 48 hrs by MTT assay; format: toxicity, cell-based
[16] = Cytotoxicity against human HaCaT cells assessed as cell growth inhibition incubated for 48 hrs by MTT assay; format: toxicity, cell-based
[17] = Cytotoxicity against human L02 cells assessed as cell growth inhibition incubated for 48 hrs by MTT assay; format: toxicity, cell-based
HT-29 = experiment: Antiproliferative activity against human HT-29 cells assessed as cell growth inhibition incubated for 48 hrs by MTT assay; format: functional, cell-based; conditions: HT-29, 48 h
PC-3 = experiment: Antiproliferative activity against human PC-3 cells assessed as cell growth inhibition incubated for 48 hrs by MTT assay; format: functional, cell-based; conditions: PC-3, 48 h
[18] = Antiproliferative activity against Chinese hamster CHO cells assessed as cell growth inhibition incubated for 48 hrs by MTT assay; format: toxicity, cell-based, Cricetulus griseus
[19] = Antiproliferative activity against Chinese hamster CHO-K1 cells assessed as cell growth inhibition incubated for 48 hrs by MTT assay; format: toxicity, cell-based, Cricetulus griseus
A549 [20] = experiment: Induction of apoptosis in human A549 cells assessed as viable cells at 50 nM incubated for 24 hrs by Annexin V-FITC/PI staining based flow cytometry (reference value: 93 %); format: functional; conditions: read-out: Activity
A549 [21] = experiment: Induction of apoptosis in human A549 cells assessed as early apoptotic cells at 50 nM incubated for 24 hrs by Annexin V-FITC/PI staining based flow cytometry (reference value: 4.61 %); format: functional
A549 [22] = experiment: Induction of apoptosis in human A549 cells assessed as late apoptotic cells at 50 nM incubated for 24 hrs by Annexin V-FITC/PI staining based flow cytometry (reference value: 1.72 %); format: functional
A549 [23] = experiment: Induction of apoptosis in human A549 cells assessed as necrotic cells at 50 nM incubated for 24 hrs by Annexin V-FITC/PI staining based flow cytometry (reference value: 0.67 %); format: functional
A549 [24] = experiment: Induction of mitochondrial membrane potential loss in human A549 cells by measuring red fluorescence at 50 nM incubated for 16 hrs by JC-1 staining based flow cytometry analysis (reference value: 99.3 %); format: functional
A549 [25] = experiment: Induction of mitochondrial membrane potential loss in human A549 cells by measuring green fluorescence at 50 nM incubated for 16 hrs by JC-1 staining based flow cytometry analysis (reference value: 0.7 %); format: functional
[26] = Metabolic stability in mouse liver microsomes assessed as half life incubated for 10 mins in presence of NADPH by LC-MS/MS analysis; format: ADME, Microsome
[27] = molecular target: T1, Tyrosine-protein kinase JAK2; experiment: Inhibition of JAK2 (unknown origin) using Poly-(Glu,Tyr 4:1) peptide as substrate in presence of ATP by ADP-Glo reagent based assay
[28] = molecular target: Tyrosine-protein kinase JAK1 (Homo sapiens, UniProt P23458); experiment: Inhibition of JAK1 (unknown origin) using Poly-(Glu,Tyr 4:1) peptide as substrate in presence of ATP by ADP-Glo reagent based assay
A2780 = experiment: Antiproliferative activity against human A2780 cells assessed as cell growth inhibition incubated for 48 hrs by MTT assay; format: functional, cell-based; conditions: A2780, 48 h
A2780/Taxol = experiment: Antiproliferative activity against human A2780T cells assessed as cell growth inhibition incubated for 48 hrs by MTT assay; format: functional, cell-based
HCT-8 = experiment: Antiproliferative activity against human HCT-8 cells assessed as cell growth inhibition incubated for 48 hrs by MTT assay; format: functional, cell-based; conditions: HCT-8, 48 h
[29] = Antiproliferative activity against human HCT-8/VCR cells assessed as cell growth inhibition incubated for 48 hrs by MTT assay; format: functional, cell-based
[30] = Antiproliferative activity against human A549/DDP cells assessed as cell growth inhibition incubated for 48 hrs by MTT assay; format: functional, cell-based
A549 [31] = experiment: Induction of apoptosis in human A549 cells assessed as viable cells at 500 nM incubated for 24 hrs by Annexin V-FITC/PI staining based flow cytometry (reference value: 93 %); format: functional; conditions: read-out: Activity
A549 [32] = experiment: Induction of apoptosis in human A549 cells assessed as early apoptotic cells at 500 nM incubated for 24 hrs by Annexin V-FITC/PI staining based flow cytometry (reference value: 4.61 %); format: functional
A549 [33] = experiment: Induction of apoptosis in human A549 cells assessed as late apoptotic cells at 500 nM incubated for 24 hrs by Annexin V-FITC/PI staining based flow cytometry (reference value: 1.72 %); format: functional
A549 [34] = experiment: Induction of apoptosis in human A549 cells assessed as necrotic cells at 500 nM incubated for 24 hrs by Annexin V-FITC/PI staining based flow cytometry (reference value: 0.67 %); format: functional
A549 [35] = experiment: Induction of mitochondrial membrane potential loss in human A549 cells by measuring red fluorescence at 500 nM incubated for 16 hrs by JC-1 staining based flow cytometry analysis (reference value: 99.3 %); format: functional
A549 [36] = experiment: Induction of mitochondrial membrane potential loss in human A549 cells by measuring green fluorescence at 500 nM incubated for 16 hrs by JC-1 staining based flow cytometry analysis (reference value: 0.7 %); format: functional
NCI/ADR-RES = experiment: cells; conditions: Homo sapiens, 48 h
Description: Antiproliferative activity against human MCF7ADR cells assessed as cell growth inhibition incubated for 48 hrs by MTT assay

T1 sequence (O60674 whole entry): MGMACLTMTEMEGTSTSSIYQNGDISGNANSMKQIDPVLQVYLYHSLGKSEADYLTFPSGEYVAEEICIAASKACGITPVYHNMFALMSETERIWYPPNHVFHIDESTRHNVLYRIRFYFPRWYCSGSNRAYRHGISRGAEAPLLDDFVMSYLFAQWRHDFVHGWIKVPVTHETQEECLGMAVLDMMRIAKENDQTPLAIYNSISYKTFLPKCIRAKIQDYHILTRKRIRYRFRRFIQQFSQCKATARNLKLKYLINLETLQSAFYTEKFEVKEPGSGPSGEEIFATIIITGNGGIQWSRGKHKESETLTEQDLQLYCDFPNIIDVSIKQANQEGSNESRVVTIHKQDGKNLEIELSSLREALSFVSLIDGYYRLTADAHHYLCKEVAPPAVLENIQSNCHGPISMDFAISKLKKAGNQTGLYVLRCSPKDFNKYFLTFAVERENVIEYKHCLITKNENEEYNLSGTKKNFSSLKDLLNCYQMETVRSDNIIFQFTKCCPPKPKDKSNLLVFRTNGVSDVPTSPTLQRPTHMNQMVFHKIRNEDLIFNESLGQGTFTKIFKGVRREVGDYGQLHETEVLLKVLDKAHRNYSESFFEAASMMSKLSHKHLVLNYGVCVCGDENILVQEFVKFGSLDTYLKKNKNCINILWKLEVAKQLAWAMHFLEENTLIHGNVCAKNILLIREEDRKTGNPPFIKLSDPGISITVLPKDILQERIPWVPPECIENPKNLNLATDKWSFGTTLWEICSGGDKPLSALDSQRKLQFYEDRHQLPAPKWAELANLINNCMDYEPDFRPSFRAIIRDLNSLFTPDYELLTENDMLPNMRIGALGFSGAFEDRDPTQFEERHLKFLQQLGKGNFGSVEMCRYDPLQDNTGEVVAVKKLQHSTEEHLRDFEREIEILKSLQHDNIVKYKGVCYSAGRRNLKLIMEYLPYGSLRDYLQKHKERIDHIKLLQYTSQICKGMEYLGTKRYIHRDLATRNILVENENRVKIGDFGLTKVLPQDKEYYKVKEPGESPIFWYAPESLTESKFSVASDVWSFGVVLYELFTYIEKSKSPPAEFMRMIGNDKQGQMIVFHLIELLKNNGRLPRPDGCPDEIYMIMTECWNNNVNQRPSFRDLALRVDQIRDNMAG
Tyrosine-protein kinase JAK1, sequence (P23458 whole entry): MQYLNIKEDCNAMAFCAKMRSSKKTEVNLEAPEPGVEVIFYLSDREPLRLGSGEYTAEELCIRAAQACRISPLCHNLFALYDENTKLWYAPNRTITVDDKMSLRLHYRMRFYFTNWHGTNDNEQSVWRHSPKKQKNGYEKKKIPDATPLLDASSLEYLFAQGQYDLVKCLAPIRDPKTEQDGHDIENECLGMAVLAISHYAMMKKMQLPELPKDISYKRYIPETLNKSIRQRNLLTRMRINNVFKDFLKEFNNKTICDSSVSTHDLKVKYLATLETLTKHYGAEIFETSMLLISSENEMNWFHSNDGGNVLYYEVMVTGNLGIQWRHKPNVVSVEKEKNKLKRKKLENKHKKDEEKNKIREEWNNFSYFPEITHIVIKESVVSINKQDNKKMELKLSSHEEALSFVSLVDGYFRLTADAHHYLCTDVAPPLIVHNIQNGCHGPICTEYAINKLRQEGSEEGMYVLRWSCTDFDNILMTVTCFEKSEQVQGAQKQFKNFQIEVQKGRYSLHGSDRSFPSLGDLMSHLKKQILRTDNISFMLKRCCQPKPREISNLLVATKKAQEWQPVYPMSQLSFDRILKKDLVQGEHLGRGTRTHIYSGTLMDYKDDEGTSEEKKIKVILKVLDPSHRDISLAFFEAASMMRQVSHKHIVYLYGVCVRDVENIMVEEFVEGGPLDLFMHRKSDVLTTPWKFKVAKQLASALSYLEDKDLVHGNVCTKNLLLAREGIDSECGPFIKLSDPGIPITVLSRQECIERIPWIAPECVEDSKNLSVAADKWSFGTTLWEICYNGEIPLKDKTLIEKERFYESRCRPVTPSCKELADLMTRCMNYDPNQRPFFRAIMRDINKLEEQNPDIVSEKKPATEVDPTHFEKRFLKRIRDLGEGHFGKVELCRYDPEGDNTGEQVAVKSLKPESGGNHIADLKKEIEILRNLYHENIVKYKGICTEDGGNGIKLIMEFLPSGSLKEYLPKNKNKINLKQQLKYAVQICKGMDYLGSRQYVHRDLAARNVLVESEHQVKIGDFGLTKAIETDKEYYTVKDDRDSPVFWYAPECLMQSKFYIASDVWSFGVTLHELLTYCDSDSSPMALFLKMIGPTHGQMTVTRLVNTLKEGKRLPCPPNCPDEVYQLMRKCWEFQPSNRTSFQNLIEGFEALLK

Compound	IC50 (HeLa) [nM]	IC50 (KP-4) [nM]	IC50 (A549 [1]) [nM]	IC50 (BXPC-3) [nM]	IC50 (MCF7) [nM]	inhibition [14] [%]	IC50 (COLO 205) [nM]	IC50 (CWR22R) [nM]	IC50 (HepG2) [nM]	IC50 at 48 h [15] [nM]	IC50 at 48 h [16] [nM]	IC50 at 48 h [17] [nM]	IC50 (HT-29) [nM]	IC50 (PC-3) [µM]	IC50 at 48 h [18] [nM]	IC50 at 48 h [19] [µM]	also measured
COc1cc(-c2nccc3nc(Nc4cccc5c4ccn5P(=O)([O-])[O-])nn23)cc(OC)c1OC.[Na+].[Na+]	11	42	12	9	48												AUC(0-t) at 24 h [2]: 850 ng·h/mL; AUC(0-inf) [3]: 908 ng·h/mL; MRT last at 24 h [4]: 1.8 h; MRT inf [5]: 2.4 h; half-life [6]: 108 min; Tmax [7]: 6 min; Cmax [8]: 334 ng/mL; Activity (A549 [9]): 204.6 mm3; Activity (A549 [10]): 91%; Activity (A549 [11]): Active; Activity [12]: Non-Toxic; MTD at 5 days [13]: 100 mg/kg
COc1cc2c(c(OC)c1OC)-c1ccc(OC)c(=O)cc1[C@@H](NC(C)=O)CC2 [COLCHICINE]			64	41	46	5.7	12.8	18	75	21.8	9.3	269	31	0.079	697	9.2	viability at 0.05 µM (A549 [20]): 57%; Activity (A549 [21]): 15.3%; Activity (A549 [22]): 24.1%; Activity (A549 [23]): 3.6%; Activity (A549 [24]): 93.9%; Activity (A549 [25]): 0.1%
CN1CCN(c2cccc(Nc3nc4c(-c5ccc(S(C)(=O)=O)cc5)cccn4n3)c2)CC1	1260	372	358	730	1230	99	1550	5790	2040	4930	2830	388	961	15.1	172	0.216	half-life [26]: 13.1 min; IC50 [27]: 6 nM; IC50 [28]: 12 nM; IC50 (A2780): 289 nM; IC50 (A2780/Taxol): 394 nM; IC50 (HCT-8): 1140 nM; IC50 [29]: 5.78 µM; IC50 [30]: 1530 nM; viability at 0.5 µM (A549 [31]): 65.7%; Activity (A549 [32]): 14.9%; Activity (A549 [33]): 16.6%; Activity (A549 [34]): 2.8%; Activity (A549 [35]): 96.5%; Activity (A549 [36]): 3.5%; IC50 (NCI/ADR-RES): 3.53 µM
